Measurements as given in article PMC8151276, “An Integrated Approach toward NanoBRET Tracers for Analysis of GPCR Ligand Engagement” (Molecules, 2021).

Key:
Assay type in all cases: binding
AVPR1B = biological target: T1, AVPR1B (Homo sapiens, UniProt P47901); test: NanoBRET screen HiBiT-AVPR1B in HEK293; settings: AVPR1B
T1 construct: purchased Promega (in-house HiBiT-GPCR construct library, NanoBRET)
T1 sequence (P47901 1-424): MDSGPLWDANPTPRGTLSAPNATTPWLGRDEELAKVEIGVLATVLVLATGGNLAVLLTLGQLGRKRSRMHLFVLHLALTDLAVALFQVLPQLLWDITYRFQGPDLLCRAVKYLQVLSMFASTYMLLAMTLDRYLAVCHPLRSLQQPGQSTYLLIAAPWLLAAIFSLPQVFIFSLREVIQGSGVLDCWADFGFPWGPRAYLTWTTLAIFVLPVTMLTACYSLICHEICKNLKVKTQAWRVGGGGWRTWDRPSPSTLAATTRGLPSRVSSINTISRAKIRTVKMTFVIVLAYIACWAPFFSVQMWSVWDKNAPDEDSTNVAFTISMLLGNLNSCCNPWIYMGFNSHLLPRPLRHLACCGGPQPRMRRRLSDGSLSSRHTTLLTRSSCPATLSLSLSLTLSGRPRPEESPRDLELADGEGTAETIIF
Method: (§1) Each tracer candidate was screened across the entire library of HiBiT-GPCR constructs using NanoBRET as the detection modality. As depicted in Figure 4A, the specificity of interactions was evaluated through decrease in BRET due to competitive displacement of a bound tracer by excess parental compound. Each tracer was analyzed for binding to each HiBiT-GPCR fusion in the absence and in the presence of competing parental compound. Briefly, HEK293 cells were transfected with HiBiT-GPCR constructs diluted into promoterless DNA to reduce expression and maximize translocation to the cell surface. Each tracer candidate was then screened at concentrations of 1 μM and 0.1 μM across cells expressing these fusions. Cells were treated for 1.5 h with tracer either alone or in the presence of 20 μM competing parental compound (i.e., control). BRET was measured upon addition of purified LgBiT and subsequent complementation with HiBiT genetically fused to a GPCR. The specificity of interactions was assessed through a decrease in BRET signal due to competitive displacement of the bound tracer. To further gauge the robustness of these interactions, the fold response over the control (i.e., BRETtracer/BRETcontrol) was calculated. We chose a 1.5-fold response, which translates to ≥7-fold signal over noise as the minimal threshold required to score an interaction as positive. […]. Below we highlight the screening results obtained for our exemplary fluorescent tracers based on Clozapine, Amitriptyline and AZD1283.
(§2) HiBiT-GPCR DNA constructs were diluted in 10 mM Tris pH 8 to a final concentration of 0.01 μg/μL, arrayed in 96-well plates and stored at −20 °C. For transfection, HEK293 cells were suspended in Opti-MEM (without phenol red) supplemented with 2% fetal bovine serum (Seradigm) and 100 units/mL penicillin–streptomycin (Gibco) at a final concentration of 220,000 cells/mL and dispensed into white 96-well plates at 90 μL/well. Subsequent transfections and screens were carried using an Agilent Bravo Automated Liquid Handling Platform. First, the 96-well HiBiT DNA arrays were diluted 25-fold in Opti-MEM (without serum or phenol red) to a final concentration of 0.0004 μg/μL and 20 μL of the diluted DNAs were transferred into new 96-well plates. Next, promoterless carrier DNA (1 μg/μL) was diluted 25-fold (0.04 μg/μL) and then dispensed into the diluted arrays at 20 μL/well. Following brief mixing, Viafect transfection reagent (Promega) diluted 16-fold into Opti-MEM was dispensed into the plates at 40 μL/well. After mixing by pipetting, plates were incubated for 10 min on the pipetting station deck. The DNA-transfection reagent complexes were then added to plates containing cells. To facilitate the screen, 10 μL of DNA-transfection reagent complexes were added in duplicates to the top 4 and bottom 4 rows, resulting in two identical 48-well arrays per plate. Plates with transfected cells were incubated for 18–20 h at 37 °C/5% CO2. A screen of each tracer across the entire library using two different concentrations requires duplicate plates of transfected cells. Depending on the number of tracers being screened, transfections can be scaled up using the same ratios. The next day, for each tracer, four 20× screening solutions in tracer dilution buffer (Promega) were prepared: two duplicates at final concentration of 20 μM and two duplicates at a final concentration of 2 μM. A competing unmodified compound was added to one of each duplicate at a final concentration of 400 μM. The four resulting solutions were diluted 4-fold in Opti-MEM without serum or phenol red to generate 5× solutions (5 µM and 0.5 µM tracer +/− 100 μM competing compound). To screen the library, a BioTek MultiFlo FX liquid dispenser was used to dispense 22.5 µL of tracer solution to the top 4 rows and 22.5 µL tracer + competing compound solution to the 4 bottom rows. Plates were briefly mixed on an orbital shaker and incubated for 1.5 h at room temperature. […]

CCR3 = biological target: T2, CCR3 (Homo sapiens, UniProt P51677); test: NanoBRET screen HiBiT-CCR3 in HEK293; settings: CCR3
T2 construct: purchased Promega (in-house HiBiT-GPCR construct library, NanoBRET)
T2 sequence (P51677 1-355): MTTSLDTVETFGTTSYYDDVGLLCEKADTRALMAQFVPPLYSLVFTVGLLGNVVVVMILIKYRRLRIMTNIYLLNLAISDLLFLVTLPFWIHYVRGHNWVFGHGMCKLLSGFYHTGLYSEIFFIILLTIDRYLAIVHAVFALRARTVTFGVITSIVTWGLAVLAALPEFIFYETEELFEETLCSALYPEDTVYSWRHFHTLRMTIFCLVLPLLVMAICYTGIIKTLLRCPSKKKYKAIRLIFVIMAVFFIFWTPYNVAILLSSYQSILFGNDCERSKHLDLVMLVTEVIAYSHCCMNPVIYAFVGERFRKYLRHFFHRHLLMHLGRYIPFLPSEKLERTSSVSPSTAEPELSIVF
Method: as §1, §2

C3AR1 = biological target: T3, C3AR1 (Homo sapiens, UniProt Q16581); test: NanoBRET screen HiBiT-C3AR1 in HEK293; settings: C3AR1
T3 construct: purchased Promega (in-house HiBiT-GPCR construct library, NanoBRET)
T3 sequence (Q16581 1-482): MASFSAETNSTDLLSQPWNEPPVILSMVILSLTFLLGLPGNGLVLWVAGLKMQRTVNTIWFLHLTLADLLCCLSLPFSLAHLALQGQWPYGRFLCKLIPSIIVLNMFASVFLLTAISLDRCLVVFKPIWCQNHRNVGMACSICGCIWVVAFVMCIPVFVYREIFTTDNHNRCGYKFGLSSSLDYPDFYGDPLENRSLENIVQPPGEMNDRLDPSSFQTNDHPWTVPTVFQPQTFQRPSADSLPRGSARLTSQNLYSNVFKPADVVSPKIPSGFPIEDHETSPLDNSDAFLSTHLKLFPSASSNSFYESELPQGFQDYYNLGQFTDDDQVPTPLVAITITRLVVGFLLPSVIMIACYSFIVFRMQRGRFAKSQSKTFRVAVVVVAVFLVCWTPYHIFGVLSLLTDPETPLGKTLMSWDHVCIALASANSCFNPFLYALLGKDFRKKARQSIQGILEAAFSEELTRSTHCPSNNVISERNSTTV
Method: as §1, §2

CXCR4 = biological target: T4, CXCR4 (Homo sapiens, UniProt P61073); test: NanoBRET screen HiBiT-CXCR4 in HEK293; settings: CXCR4
T4 construct: purchased Promega (in-house HiBiT-GPCR construct library, NanoBRET)
Method: as §1, §2

T4 sequence (P61073 whole entry): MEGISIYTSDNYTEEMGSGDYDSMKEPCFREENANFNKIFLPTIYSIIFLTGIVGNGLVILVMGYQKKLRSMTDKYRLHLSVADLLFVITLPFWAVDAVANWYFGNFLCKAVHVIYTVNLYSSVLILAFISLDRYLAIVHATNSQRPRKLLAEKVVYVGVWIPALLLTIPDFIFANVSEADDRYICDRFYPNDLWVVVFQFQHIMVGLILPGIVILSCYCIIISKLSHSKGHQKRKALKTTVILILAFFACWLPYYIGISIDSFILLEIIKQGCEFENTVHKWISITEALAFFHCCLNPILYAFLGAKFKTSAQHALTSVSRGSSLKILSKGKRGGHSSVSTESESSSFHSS

| SMILES | NanoBRET Fold Response (AVPR1B; tracer 0.1μM) | NanoBRET Fold Response (AVPR1B; tracer 1μM) | NanoBRET Fold Response (CCR3; tracer 0.1μM) | NanoBRET Fold Response (CCR3; tracer 1μM) | NanoBRET Fold Response (C3AR1; tracer 0.1μM) | NanoBRET Fold Response (C3AR1; tracer 1μM) | NanoBRET Fold Response (CXCR4; tracer 0.1μM) | NanoBRET Fold Response (CXCR4; tracer 1μM) | further results |
| --- | --- | --- | --- | --- | --- | --- | --- | --- | --- |
| CN1CCN(C2=Nc3cc(Cl)ccc3N(CC(=O)NCCOCCOCCOCCOCCNC(=O)CCc3ccc4n3[B-](F)(F)[N+]3=C(c5ccc[nH]5)C=CC3=C4)c3ccccc32)CC1 [Clozapine-c-2-NB590] | – | – | – | – | – | – | – | – | NanoBRET Fold Response (AVPR1B; 0.1μM tracer): 0.95; NanoBRET Fold Response (AVPR1B; 1μM tracer): 0.84; NanoBRET Fold Response (CCR3; 0.1μM tracer): 0.97; NanoBRET Fold Response (CCR3; 1μM tracer): 0.85; NanoBRET Fold Response (C3AR1; 0.1μM tracer): 0.99; NanoBRET Fold Response (C3AR1; 1μM tracer): 1.00; NanoBRET Fold Response (CXCR4; 0.1μM tracer): 1.04; NanoBRET Fold Response (CXCR4; 1μM tracer): 0.97 |
| O=C(CCOCCOCCOCCOCCNC(=O)CCc1ccc2n1[B-](F)(F)[N+]1=C(c3ccc[nH]3)C=CC1=C2)NCCCN1CCN(C2=Nc3ccccc3Oc3ccc(Cl)cc32)CC1 [Loxapine-a-2-NB590] | 1.06 | 0.96 | 1.02 | 1.02 | 0.97 | 1.08 | 1.03 | 1.03 | – |
| COc1ccccc1N1CCN(CCCCN2C(=O)c3ccc(CNC(=O)CCOCCNC(=O)c4ccc(CNC(=O)CCc5ccc6n5[B-](F)(F)[N+]5=C(c7ccc[nH]7)C=CC5=C6)cc4)cc3C2=O)CC1 [NAN-190-3-NB590] | 1.04 | 1.04 | 1.02 | 1.02 | 0.90 | 0.93 | 1.24 | 1.08 | – |
| O=C(CCc1ccc2n1[B-](F)(F)[N+]1=C(c3ccc[nH]3)C=CC1=C2)NCc1ccc(C(=O)NCCOCCC(=O)N[C@@H]2CC[C@@]3(O)[C@H]4Cc5ccc(O)c6c5[C@@]3(CCN4CC3CC3)[C@H]2O6)cc1 [Naltrexone-3-NB590] | 1.19 | 1.17 | 1.35 | 0.89 | 0.99 | 1.02 | 1.30 | 0.84 | – |
| Cc1cc2c(s1)Nc1ccccc1N=C2N1CCN(CCCNC(=O)CCOCCOCCOCCOCCNC(=O)CCc2ccc3n2[B-](F)(F)[N+]2=C(c4ccc[nH]4)C=CC2=C3)CC1 [Olanzapine-a-2-NB590] | 1.03 | 1.17 | 1.19 | 1.22 | 1.01 | 1.01 | 1.04 | 1.10 | – |
| O=C(CCc1ccc2n1[B-](F)(F)[N+]1=C(c3ccc[nH]3)C=CC1=C2)NCc1ccc(C(=O)NCCOCCOCCNCC(O)COc2cccc3ccccc23)cc1 (centres unmarked) [Propranolol-3-NB590] | – | – | – | – | – | – | – | – | NanoBRET Fold Response (AVPR1B; 0.1μM): 0.90; NanoBRET Fold Response (AVPR1B; 1μM): 1.04; NanoBRET Fold Response (CCR3; 0.1μM): 1.04; NanoBRET Fold Response (CCR3; 1μM): 1.01; NanoBRET Fold Response (C3AR1; 0.1μM): 1.05; NanoBRET Fold Response (C3AR1; 1μM): 1.07; NanoBRET Fold Response (CXCR4; 0.1μM): 1.04; NanoBRET Fold Response (CXCR4; 1μM): 1.02 |
| O=C(CCc1ccc2n1[B-](F)(F)[N+]1=C(c3ccc[nH]3)C=CC1=C2)NCCOCCOCCNC(=O)OCCOCCN1CCN(C2=Nc3ccccc3Sc3ccccc32)CC1 [Quetiapine-a-2-NB590] | 0.86 | 1.01 | 1.11 | 0.98 | 0.86 | 1.02 | 0.98 | 0.97 | – |
| Cc1nc2n(c(=O)c1CCN1CCC(c3noc4cc(F)ccc34)CC1)CCCC2OC(=O)NCCOCCOCCOCCOCCNC(=O)CCc1ccc2n1[B-](F)(F)[N+]1=C(c3ccc[nH]3)C=CC1=C2 (centres unmarked) [Risperidone-2-NB590] | 1.06 | 0.98 | 1.06 | 1.27 | 0.93 | 0.98 | 1.05 | 1.12 | – |
| CC(C)N(CC[C@H](c1ccccc1)c1cc(CCNC(=O)CCOCCOCCOCCOCCNC(=O)CCc2ccc3n2[B-](F)(F)[N+]2=C(c4ccc[nH]4)C=CC2=C3)ccc1O)C(C)C [Tolterodine-2-NB590] | 1.42 | 0.97 | 1.63 | 1.01 | 1.04 | 1.01 | 0.88 | 1.02 | – |
| CC(C)N(CC[C@H](c1ccccc1)c1cc(CCNC(=O)c2ccc(CNC(=O)CCc3ccc4n3[B-](F)(F)[N+]3=C(c5ccc[nH]5)C=CC3=C4)cc2)ccc1O)C(C)C [Tolterodine-BZ-NB590] | 0.85 | 0.94 | 0.98 | 0.72 | 1.00 | 0.99 | 0.94 | 1.03 | – |
